Results reported in PMC7750480, “A hybrid approach reveals the allosteric regulation of GTP cyclohydrolase I” (Proceedings of the National Academy of Sciences of the …, 2020).
One block for each molecule: values may come before it.

How the values were obtained:
[1] = target: T1, GCH1 (Homo sapiens, UniProt P30793); test: STD NMR assay with active site reporter ligand GTP; type: binding; settings: addition of another active site binder
T1 construct: The hGCH1 (42-250, N-terminal 6xHis Tag and TEV cleavage site); 6xHis (N); TEV cleavage site (N); made in house; host or cells: E. coli BL21(DE3)
T1 sequence (P30793 42-250): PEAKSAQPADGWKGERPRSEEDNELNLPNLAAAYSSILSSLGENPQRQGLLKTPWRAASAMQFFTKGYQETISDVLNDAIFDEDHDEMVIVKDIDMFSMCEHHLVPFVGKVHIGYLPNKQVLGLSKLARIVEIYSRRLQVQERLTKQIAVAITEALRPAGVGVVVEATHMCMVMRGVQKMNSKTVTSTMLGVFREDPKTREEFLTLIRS
From the text: Supplemental Figure 6: Detection of product formation and STD NMR assay. A) Enzyme activity assay for GCH1 based on colorimetric detection of H2NTP or 1H-NMR detection of formate. […]
inhibitor (e.g. BH4). B) STD NMR is capable to detect GTP binding (green). Addition of another active site binder (8-oxo […]
STD NMR enhancement of substrate GTP in the presence of allosteric regulator BH4 (red). This screening assay allows for the identification of allosteric binders. C) Correlation of activity in functional NMR assay and STD NMR enhancement of active site reporter ligand GTP.
(1 picture or pasted object on this page, not shown here)

[2] = target: T2, GCH1 WT (Homo sapiens, UniProt P30793); test: differential scanning fluorimetry (DSF), WT GCH1; type: binding; settings: protein melting point in presence of GTP
T2 construct: The hGCH1 (42-250, N-terminal 6xHis Tag and TEV cleavage site); 6xHis (N); TEV cleavage site (N); made in house; host or cells: E. coli BL21(DE3)
T2 sequence (P30793 42-250): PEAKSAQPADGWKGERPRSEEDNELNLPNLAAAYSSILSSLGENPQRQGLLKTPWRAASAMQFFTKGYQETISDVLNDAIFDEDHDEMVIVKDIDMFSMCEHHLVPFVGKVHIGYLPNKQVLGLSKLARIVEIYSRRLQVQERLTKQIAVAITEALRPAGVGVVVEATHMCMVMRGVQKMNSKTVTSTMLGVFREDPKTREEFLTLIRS
Description: (§1) The Tm of proteins and protein complexes was determined by DSF using the Thermofluor Bio-Rad CFX384 and the Bio-Rad CFX Manager software. Ten micromolar protein solution was equipped with 5× SYPRO Orange Protein Gel Stain (Invitrogen) reaching a total volume of 10 μL. Effector molecules and GFRP were added in different concentrations to test their influence on thermal stability; 384 well plates were heated up using a temperature ramp from 15 °C to 95 °C in 1 °C/min steps.

[3] = target: T3, GCH1 F122A (Homo sapiens, UniProt P30793, F122A); test: differential scanning fluorimetry (DSF), F122A; type: binding
T3 construct: The hGCH1 (42-250, N-terminal 6xHis Tag and TEV cleavage site); 6xHis (N); TEV cleavage site (N); made in house; host or cells: E. coli BL21(DE3)
T3 sequence (P30793 42-250 F122A): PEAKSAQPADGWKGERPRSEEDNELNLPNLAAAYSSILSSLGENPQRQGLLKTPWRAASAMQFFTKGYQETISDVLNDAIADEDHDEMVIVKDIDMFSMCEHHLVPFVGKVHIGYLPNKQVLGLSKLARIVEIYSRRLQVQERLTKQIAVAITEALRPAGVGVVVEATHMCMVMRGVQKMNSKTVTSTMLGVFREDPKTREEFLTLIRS
Description: as §1

[4] = target: T4, GCH1 R235A (Homo sapiens, UniProt P30793, R235A); test: differential scanning fluorimetry (DSF), R235A; type: binding
T4 construct: The hGCH1 (42-250, N-terminal 6xHis Tag and TEV cleavage site); 6xHis (N); TEV cleavage site (N); made in house; host or cells: E. coli BL21(DE3)
T4 sequence (P30793 42-250 R235A): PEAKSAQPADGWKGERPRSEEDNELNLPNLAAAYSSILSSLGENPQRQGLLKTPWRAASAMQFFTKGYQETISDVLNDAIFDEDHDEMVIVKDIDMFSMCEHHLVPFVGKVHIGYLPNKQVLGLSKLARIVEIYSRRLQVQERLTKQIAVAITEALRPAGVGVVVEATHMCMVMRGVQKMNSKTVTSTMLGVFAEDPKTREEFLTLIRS
Description: as §1

[5] = target: T5, GCH1 D127A (Homo sapiens, UniProt P30793, D127A); test: differential scanning fluorimetry (DSF), D127A; type: binding
T5 construct: The hGCH1 (42-250, N-terminal 6xHis Tag and TEV cleavage site); 6xHis (N); TEV cleavage site (N); made in house; host or cells: E. coli BL21(DE3)
T5 sequence (P30793 42-250 D127A): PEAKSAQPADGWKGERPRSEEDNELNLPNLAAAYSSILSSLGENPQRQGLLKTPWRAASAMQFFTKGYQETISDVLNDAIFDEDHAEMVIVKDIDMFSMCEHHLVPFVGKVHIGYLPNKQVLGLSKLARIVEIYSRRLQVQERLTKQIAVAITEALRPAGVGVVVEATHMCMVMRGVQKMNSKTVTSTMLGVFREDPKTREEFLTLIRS
Description: as §1

[6] = target: T6, GCH1 E128A (Homo sapiens, UniProt P30793, E128A); test: differential scanning fluorimetry (DSF), E128A; type: binding; settings: protein melting point in presence of GTP
T6 construct: The hGCH1 (42-250, N-terminal 6xHis Tag and TEV cleavage site); 6xHis (N); TEV cleavage site (N); made in house; host or cells: E. coli BL21(DE3)
T6 sequence (P30793 42-250 E128A): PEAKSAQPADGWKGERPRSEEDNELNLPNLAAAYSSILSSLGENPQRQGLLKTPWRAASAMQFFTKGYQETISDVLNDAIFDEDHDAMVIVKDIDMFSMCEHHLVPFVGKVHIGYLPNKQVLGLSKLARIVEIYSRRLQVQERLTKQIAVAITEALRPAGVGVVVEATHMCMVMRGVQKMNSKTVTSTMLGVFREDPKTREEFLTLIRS
Description: as §1

[7] = target: T7, GCH1 H126A (Homo sapiens, UniProt P30793, H126A); test: differential scanning fluorimetry (DSF), H126A; type: binding
T7 construct: The hGCH1 (42-250, N-terminal 6xHis Tag and TEV cleavage site); 6xHis (N); TEV cleavage site (N); made in house; host or cells: E. coli BL21(DE3)
T7 sequence (P30793 42-250 H126A): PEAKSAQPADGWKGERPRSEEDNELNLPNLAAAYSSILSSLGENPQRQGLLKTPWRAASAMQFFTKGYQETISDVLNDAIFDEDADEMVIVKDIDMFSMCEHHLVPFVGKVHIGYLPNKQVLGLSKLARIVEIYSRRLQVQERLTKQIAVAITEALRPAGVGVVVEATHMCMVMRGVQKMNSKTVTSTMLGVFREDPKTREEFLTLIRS
Description: as §1

[8] = target: T8, GCH1 R241A (Homo sapiens, UniProt P30793, R241A); test: differential scanning fluorimetry (DSF), R241A; type: binding
T8 construct: The hGCH1 (42-250, N-terminal 6xHis Tag and TEV cleavage site); 6xHis (N); TEV cleavage site (N); made in house; host or cells: E. coli BL21(DE3)
T8 sequence (P30793 42-250 R241A): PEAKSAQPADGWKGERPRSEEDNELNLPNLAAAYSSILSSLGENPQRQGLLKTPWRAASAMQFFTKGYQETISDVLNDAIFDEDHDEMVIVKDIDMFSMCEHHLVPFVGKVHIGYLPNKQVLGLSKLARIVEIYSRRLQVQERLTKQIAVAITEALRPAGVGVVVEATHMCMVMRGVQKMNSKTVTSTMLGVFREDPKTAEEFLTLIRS
Description: as §1

[9] = substrate: Nc1nc2c(ncn2[C@@H]2O[C@H](COP(=O)(O)OP(=O)(O)OP(=O)(O)O)[C@@H](O)[C@H]2O)c(=O)[nH]1; test: enzyme kinetics, H2NTP formation at 330 nm, WT GCH1; type: biochemical, human; settings: other: substrate GTP 1-2000 µM, without GFRP, not stimulated/inhibited; pH 7.5; 37.0 °C
Description: In order to test the role of the key residues H126, D127, E128, R235, and R241 involved in allosteric inhibitor binding and conformational change, various point mutants were prepared and tested for their ability to be stimulated and inhibited by effector molecules in the presence or absence of GFRP. […] Enzyme activity was evaluated using an activity assay measuring the formation of the product H2NTP at 330 nm with increasing GTP concentrations.
GTPCH-I specific enzyme activity was determined by spectrometric measuring of the concentration of its direct product H2NTP. Synergy H1 (BioTek Instruments) and Gen5 2.01 software were used to evaluate H2NTP concentration and the maximal turnover rate (Vmax) within each measuring interval. H2NTP concentration was measured at 330 nm over a measuring period of 2 h using a measuring interval of 2 min to 4 min at 37 °C. Samples were prepared using 2 μM GTPCH-I, varying concentrations of GTP (1 μM to 2,000 µM) and in the absence or presence of 15 mM phenylalanine, 0.1 mM BH4, or 3 μM GFRP. The assay buffer used was 50 mM Tris/HCl, pH 7.5, 100 mM KCl. The specific enzyme activity (A) was calculated using the path length of 0.15 cm and the extinction coefficient […] = 6,300 M^−1⋅cm^−1 H2NTP. […] All enzymatic data were, at least, measured in triplicate (n = 3).

[10] = protein melting point in presence of GTP
[11] = shift of melting point with GTP

- effect on STD NMR signal of GTP (active site competition) [1]: loss of the signal
Molecule: Nc1nc2c([nH]c(=O)n2[C@@H]2O[C@H](COP(=O)(O)OP(=O)(O)OP(=O)(O)O)[C@@H](O)[C@H]2O)c(=O)[nH]1 [8-oxo GTP, 8-oxo-GTP]

- TM + GTP [2]: 83.2 °C
- TM + GTP [3, 10]: 75.2 °C
- ΔTM WT+GTP [3, 11]: 4.2 °C
- TM + GTP [4, 10]: 81.2 °C
- ΔTM WT+GTP [4, 11]: 11.2 °C
- TM + GTP [5, 10]: 78.0 °C
- ΔTM WT+GTP [5, 11]: 5.0 °C
- TM + GTP [6]: 78.5 °C
- TM + GTP [7, 10]: 80.0 °C
- ΔTM WT+GTP [7, 11]: 6.0 °C
- TM + GTP [8, 10]: 86.2 °C
- ΔTM WT+GTP [8, 11]: 17.7 °C
Molecule: Nc1nc2c(ncn2[C@@H]2O[C@H](COP(=O)(O)OP(=O)(O)OP(=O)(O)O)[C@@H](O)[C@H]2O)c(=O)[nH]1 [GTP, Guanosine triphosphate]

B1: GCH1 (WT) (Homo sapiens) (protein)
chain: PEAKSAQPADGWKGERPRSEEDNELNLPNLAAAYSSILSSLGENPQRQGLLKTPWRAASAMQFFTKGYQETISDVLNDAIFDEDHDEMVIVKDIDMFSMCEHHLVPFVGKVHIGYLPNKQVLGLSKLARIVEIYSRRLQVQERLTKQIAVAITEALRPAGVGVVVEATHMCMVMRGVQKMNSKTVTSTMLGVFREDPKTREEFLTLIRS
notes: The hGCH1 (42-250, N-terminal 6xHis Tag and TEV cleavage site); 6xHis (N); TEV cleavage site (N); made in house; host or cells: E. coli BL21(DE3)
- Km [9]: 106 µM
